Experiment [1] deals with las quorum sensing system (lasB-gfp(ASV) Plac-lasR). As to the kind of experiment: pMHLAS lasB-gfp(ASV) reporter in E. coli MT102. It is filed as cell-based, Escherichia coli. The following applies: for induction of the lasB-gfp(ASV) monitor by AHL compounds: E. coli with pMHLAS, AHLs 0 to 1000 nM. The method, then: (§1) AHL and furanone bioassay. Strains were grown exponentially in LB or ABt medium supplemented with 0.5% glucose at 30° C., shading at 250 rpm. At an optical density of approximately 0.8. the cultures were diluted and split into subcultures in glass culture flasks. AHLs and furanone 56 were added to appropriate concentrations and the cultures were further incubated at 30° C. under vigorous shaking. Culture samples were retrieved at various time intervals and green fluorescence was measured with a fluorometer (model RF-1501, Shimadzu, Tokyo, Japan) set at an excitation wavelength of 475 nm and emission wavelength of 515 nm. Relative fluorescence was calculated as green fluorescence normalized to 1 ml culture divided by the optical density (OD600 nm.
(§2) Initially, the lasB-gfp(ASV) translational fusion (OdDHL sensor) was thoroughly characterized with respect to its sensitivity and specificity. A culture of E. coli hosting the pMHLAS monitor plasmid was diluted and spilt into several subcultures which were then supplemented with AHLs at concentrations ranging from 0 to 1000 nM. […] When the pMHLAS based reporter system was hosted by PAO-JP2. the OdDHL concentration required for half-maximal activation of the lasB-gfp(ASV) fusion was 8 nM (data not shown). In single copy on the chromosome of PAO-JP2, the OdDHL concentration on required for half-maximal activation of lasB expression was approximately 250 nM (FIG. 2b). Green fluorescent cells were visible by epifluorescence microscopy at a minimal OdDHL concentration of 50 nM (FIG. 2c).
Effect of the furanone in a heterologous background. The direct regulation exerted by the las regulon on lasB expression is well described by numerous studies (Gambello & Iglewski, 1991: Pearson et al., 1994; Pearson et al., 1997). Regulatory complexity is added by the observation that the las quorum sensing circuit itself is subject to global regulators (Albus et al., 1997; Whiteley et al., 2000) and that lasB expression is also controlled by other regulators than LasR (Brumlik & Storey, 1992; Pesci et al., 1999; Schictman et al., 1995). It was, therefore, important to rule out that QSI effect, observed is not caused by furanone interaction with high levels of control. Since there is no AHL-based quorum sensing system present in Escherichia coli (Williams et al., 2000), this bacterium provides an unbiased and well-defined genetic background for studying the direct effects of the furanone on the P. aeruginosa las quorum sensing system. We repeated the above-described experiments using E. coli MT102 as a heterologous host for the reporter system. […] This is likely to be attributed to the increased copy number of the reporter plasmid.

Experiment [2] relates to OHHL induced LuxR dependent expression of GFP. As to the kind of experiment: Quantitative furanone inhibition of the LuxR-PluxI-gfp(ASV) quorum sensor in E. coli MT102 (pJBA89). It is filed as cell-based, Escherichia coli. The following applies: gradient of furanone concentration lowering RFU to 40% versus OHHL concentration (5-100 nM). The text has this:
To analyse the AHL antagonist activity of the halogenated furanones we tested the compounds for their ability to inhibit 3oxo-C6-HSL (OHHL) induced LuxR dependent expression of green fluorescent protein (GFP) from a Pgfp(ASV) fusion in the AHL monitor strain E. coli MT102 harbouring pJBA89 (Andersen et al., 2001).
The medium used is minimal ABT containing 0.5% glucose and 0.5% Casamino Acids. In growing cultures of the AHL monitor strain E. coli Mt102 (pJBA89) encoding […] and a P-gfp(ASV) fusion, GFP(ASV) is produced immediately upon OHHL addition specifically from the LuxR controlled P-gfp(ASV) fusion gene. The sensitivity is high (responsive to as little as 3 nm OHHL) and due to the instability built into the GFP (ASV) variant there is no background production of green fluoroscence (Andersen et al., 2001). GFP expression from the AHL monitor strain E. coli MT102 (pJBA89) and the control strain MT102 harbouring the lacl^q, Plas-gfp(ASV) IPTG inducible expression system pMH197 was quantified in the following way. Overnight cultures were diluted four fold in fresh medium and incubated for one hour at 30° C. while OHHL and furanone compounds in the required concentrations were mixed in the wells of microtiter dishes. […] When absolute values were required, green fluoroscence was measured on a fluorometer (model RF-1501; Shimadzu, Tokyo, Japan) act at an excitation wavelength of 475 nm and emission detection at 515 nm. To establish a correlation between the colour code of the ARGUS-50 captured images and green fluorescence, both colour and relative fluorescence units (RFU), were determined for a dilution series of an E. coli MT102 (pJBA89) culture which had been incubated with […]. […]
From the second plot, the furanone concentration reducing the relative activity to 40% (ID60) is determined for each OHHL concentration. […]
To enable easy comparison of the strength of the furanones, an inhibition index (IIX40) is calculated for each furanone compound. […]

The subject of experiment [3] is P. aeruginosa. Particulars: cited from earlier work.
Experiment [4] relates to elastase. Nature of the experiment: Virulence factor production: elastase (proteolytic) activity of PAO-JP2 supernatant. It is filed as cell-based, Pseudomonas aeruginosa. On the procedure: Measurements of virulence factors. PAO-JP2 was grown in LB medium at 37° C. and shaking at 250 rpm to an OD600 nm of 1.0. The culture was divided into seven subcultures, which were added 0, 70, or 1000 nm OdDHL and 0. 3. or 5 μg/ml furanone 58. The cultures were grown for an additional 4 hours at 37° C. The proteolytic activity was measured as described by Ayora & G{overscore (o)}tz (1994). Azocasein (250 μl 2%, Sigma, St. Louis, Mo.) in 50 mM Tris/HCl and steril-filtered (Ø 0.2 μm) supernatant (150 μl) were incubated for 4 h at […] After precipitation of undigested substrate with trichloroacetic acid (1.2 ml 10%) for 15 minutes, followed by 10 minutes centrifugation at 1000 rpm, NaOH (1.4 ml 1 M) were added to the supernatant. The relative protease activity was measured as the absorbance at 440 nm (OD440 nm) of the supernatant divided by the optical density of the culture (OD600 nm ).

Experiment [5] concerns lasB promotor. The following applies: Gray et al., 1994; cited from earlier work.
In experiment [6] the test system is las quorum sensing system (lasB-gfp(ASV) expression). As to the kind of experiment: AHL and furanone bioassay, PlasB-gfp(ASV) Plac-lasR reporter in planktonic PAO-JP2. The experiment is classed as cell-based, Pseudomonas aeruginosa. The method, then: as §1, §2
Noteworthy, the inhibitory effect of furanone 56 was relieved at increased concentrations of OdDHL.

Experiment [7] concerns chitinase. Nature of the experiment: Virulence factor production: chitinase activity of PAO-JP2 supernatant. It is filed as cell-based, Pseudomonas aeruginosa. On the procedure: The chitinase activity assay was performed as described by the assay manufacturer (Loewe Biochemica, Sauerlach, Germany). Supernatant (560 μl) of cultures prepared as described for the elastase assay was mixed with carboxymethyl-chitin-remazol brilliant violet (200 μl) and sodium phosphate buffer (40 μl, 1 M, pH 7.5). The reaction mixture was incubated for 18 h at 40° C. in a waterbath. The reaction was stopped by addition of HCl (200 μl, 2 N) and kept for 15 min on ice. After centrifugation (10 min at 15000 rpm), the absorbance (OD550 nm) of the supernatant was measured. The relative chitinase activity was calculated as OD550 nm/OD600 nm normalized to 1 ml supernatant.

Experiment [8] relates to lasB promoter. The following applies: Pearson et al (1995), pKDT17 in PAO-R1; read-out: OdDHL required for half-maximal activation of a similar construct; cited from earlier work.
Experiment [9] has as its system lasB-gfp(ASV) reporter in P. aeruginosa PAO-JP2 biofilm. As to the kind of experiment: OdDHL-mediated signalling in PAO-JP2 flowcell biofilm, lasB-gfp(ASV) reporter, CSLM. It is filed as cell-based, Pseudomonas aeruginosa. The method, then: P. aeruginosa biofilms. Biofilms were grown at 30° C. in three-dimensional flow cells (Christensen et al., 1999) with individual channel dimensions of 0.3×4×40 mm supplied With ABt minimal medium supplemented with 2% LB. The flow system was assembled and prepared as described by Christensen et al. (1999). The substratum consisted of a microscope glass coverslip (Knittel 24×50 mm st1, Knittel Glaser, Braunschweig, Germany). Cultures for inoculation of the flow channels were prepared in the following way: P. aeruginosa strains were streaked on LB plates with the appropriate antibiotics and incubated for 24 h at 37° C. From each plate a single colony was used for inoculation of 10 ml ABt with 10% LB. The cultures were grown at, 30° C. for 18 h before they were diluted to an OD600 nm of 0.1 in sterile 0.9% NaCl and used for inoculation of the flow channels. Medium flow was kept at a constant rate of 3 mL/h, equivalent to a mean flow velocity of 0.7 mm/s, using a Watson-Marlow 205S peristaltic pump (Watson-Marlow, Falmouth, England). Biofilms were grown for 24 hours before being shifted to media containing AHL and furanone.
Scanning confocal laser microscopy (SCLM). Microscopic inspection and image acquisition were performed an a scanning confocal laser microscope (model TCS4D, Leica Lasertechnik GmbH, Heldelberg, Germany) equipped with a 63×/1.32-0.6 oil objective. The microscope was equipped with a motorized and programmable xy-stage, which was used for monitoring single colonies during the biofilm experiments. At the beginning of each online experiment, the microscope was programmed to track single randomly selected microcolonies; the sensitivity of photo multipliers and the laser intensity were adjusted and thereafter kept constant through out the duration of the experiments. Image scanning was carried out using the 488 nm and 568 nm lines of an Ar/Kr laser for detection of Gfp and Rfp, respectively. Visualization of captured images was performed using the IMARIS software package (Bitplane AG, Zúrich, Switzerland) running on a Silicon Graphics Indigo 2 workstation (Silicon Graphics, Mountain View, Calif. USA).
Inhibition of AHL-mediated signalling in P. aeruginosa biofilms. The lasB-gfp(ASV) reported was integrated into the chromosome of PAO-JP2 to ensure stable segregation and a constant gene dosage of the reported system. The strain was growth in flowcells for 24 hours in ABt-LB medium and a 10-15 μm thick biofilm developed. The media flow was subsequently switched to ABt-LB medium containing the appropriate AHL and furanone concentrations. The development of green fluorescence was monitored online by CSLM for 8 hours.

Each structure is given as a SMILES string. Several values for one entry are separate records, joined by “and”; a condition that tells them apart may be missing. Equal values may be shown once. Entries after “also recorded” stand apart in the source; their conditions may differ. Read-outs that look alike come from different tables or passages of the source.

On to `CCCCCC(=O)CC(=O)N[C@H]1CCOC1=O` [OOHL, N-[3-oxo-octanoyl]-L-homoserine lactone], for which the “induction of the lasB-gfp(ASV) monitor by AHL compounds” value (“induction of the lasB-gfp(ASV) monitor” below) in [1] was “less efficient”.

On to `CCCCCCCC(=O)CC(=O)N[C@H]1CCOC1=O` [ODHL, N-[3-oxo-decanoyl]-L-homoserine lactone], for which, in experiment [1], the “induction of the lasB-gfp(ASV) monitor” value is “activated lasB-expression albelt at a lower level; also recorded: less efficient”.

Regarding `CCCCC1=C(Br)/C(=C/Br)OC1=O` [Compound 2], the “inhibition index (IIX40)” value in [2] is 0.75 mole of furanone per mmole of.

Consider `NC[C@H]1O[C@H](O[C@H]2[C@H](O)[C@@H](O[C@H]3O[C@H](CO)[C@@H](O)[C@H](N)[C@H]3O)[C@H](N)C[C@@H]2N)[C@H](N)C[C@@H]1O` [tobramycin], for which, in [3], the “resistance in the biofilm form compared to the planktonic cells” value was 50,000 times.

Regarding `CCCCCCCCCC(=O)CC(=O)N[C@H]1CCOC1=O` [OdDHL, N-[3-oxo-dodecanoyl]-L-homoserine lactone], the elastase activity result in [4] (PAO-JP2, 70 nm OdDHL) is given as “induced”. In addition, the “elastase activity in furanone-treated culture” value in [4] (addition of 1 μM OdDHL) is given as “entirely restored”. In addition, the “induction of the promotor in response to OdDHL addition” value in experiment [5] was 63 fold. Besides, the “minimal OdDHL concentration at which green fluorescent cells were visible by epifluorescence microscopy” value in experiment [6] (mini-Tn5 reporter in PAO-JP2) came to 50 nM. The EC50 was 8 nM in experiment [6] (pMHLAS based (plasmid) reporter hosted by PAO-JP2, data not shown, read-out: OdDHL concentration required for half-maximal activation of the lasB-gfp(ASV) fusion); ~250 nM and 250 nM in [6] (reporter in single copy on the chromosome of PAO-JP2, read-out: OdDHL concentration required for half-maximal activation of lasB expression); 1000 nM in [8]. In addition, in experiment [6] (single chromosomal copy, data not shown), the “lowest OdDHL concentration detected by the reporter” value is 20 nM. The “induction of the lasB-gfp(ASV) monitor” value in experiment [1] is listed as “most efficient inducer”. Further, the “increased responsiveness to OdDHL of the E. coli strain harboring the lasB reporter” value in [1] (compared with the PAO-JP2 reporter) is listed as “approx. 10 fold”. The chitinase activity result in experiment [7] (PAO-JP2, 70 nm OdDHL) is “induced”. In [7] (addition of 1 μM OdDHL), the “chitinase activity in furanone-treated culture” value is “entirely restored”. For the same compound, in experiment [9], the “lowest OdDHL concentration inducing lasB promoter activity in PAO-JP2 biofilms” value is listed as 20 nM. The “expression of the lasB-gfp(ASV) reporter fusion in biofilm” value in [9] (40 nm OdDHL) is “induced and visible in the single cells within four hours”.

Values taken from patent publication US20040147595A1, “Biofilm degrading or sloughing compositions and methods” (priority 2001, published 2004).
